pIC50: −log10 of the molar value.
Legend:
[1] = system: M. haemolytica (OSU-012103-BHI); experiment: In vivo bovine lung infection (intratracheal) challenge model
[2] = system: Bovine primary cells (PBMCs, PMN/neutrophils) and tissue (trachea, lung) protein homogenates; experiment: Binding partner identification (NPOT, mass spectrometry); details: as compared to gamithromycin
Protocol: To further characterize the direct activity of the compounds of the invention, experiments to identify the drug's direct binding host partners(s) were performed with the aim of identifying the potential biological targets. Bovine primary cells (peripheral blood mononuclear cells [PBMCs] and polymorphonuclear cells [PMN/neutrophils]) and tissue (trachea, lung) protein homogenates were mixed with M9 and the macrolide, gamithromicin as a comparator. Tissue interactions were allowed to form using a heterogeneous assembly method (nematic protein organization technique, NPOT; Inoviem Scientific); and traditional western blots to identify native-structure proteins bound to the compound. Mass spectrometry analysis identified eight proteins involved in the interaction with M9 as compared to gamithromycin. The antibacterial macrolide gamithromycin was used as a comparator to differentiate specific binding to M9. These proteins were considered to be either direct binding partners of the drug or closely involved in the drug:target interaction (Table 6).

IL-1β = experiment: Whole blood assay, LPS stimulation, MSD cytokine detection; format: cell-based, bovine; details: top dose 500 μM; cellular toxicity signal
TNF-α = experiment: as above; format: cell-based; details: Bos taurus, fresh whole bovine blood

CCCNC[C@]1(O)[C@H](C)O[C@@H](O[C@H]2[C@H](C)[C@@H](O[C@@H]3O[C@H](C)C[C@H](NC)[C@H]3O)[C@](C)(O)C[C@@H](C)CN[C@H](C)[C@@H](O)[C@](C)(O)[C@@H](CC)OC(=O)[C@@H]2C)C[C@@]1(C)OC [Example M9, (2R,3S,4R,5R,8R,10R,11R,12S,13S,14R)-2-ethyl-3,4,10-trihydroxy-13-(((2R,4R,5S,6S)-5-hydroxy-4-methoxy-4,6-dimethyl-5-((propylamino)methyl)-tetrahydro-2H-pyran-2-yl)oxy)-11-(((2S,3R,4S,6R)-3-hydroxy-6-methyl-4-(methylamino)tetrahydro-2H-pyran-2-yl)oxy)-3,5,8,10,12,14-hexamethyl-1-oxa-6-azacyclopentadecan-15-one]
mortality ([1]; No challenge, M9 10 mg/kg (T04)): 0/6 | Mortality (%) ([1]; second intratracheal challenge study, 10 mg/kg (T05)): 12.5% | proteins involved in the interaction [2]: eight | overstimulation of IL-1B (IL-1β): > 500 µM | pIC50 (TNF-α): 3.60

Reference: patent US12390441B2, “Immunomodulating o-het/aryl azalides” (Zoetis Services LLC, priority 2020, dated 2025)
